The target in one data set is T1, hCav3.2 Channel (Homo sapiens, UniProt O95180).
T1 construct: expressed in transfected cells
Briefly: Recombinant hCav3.2 channel expressed in mammalian cells. It counts as cell-based. Details: hCav3.2 Channel % Use Dep. (use dependent inhibition): concentration or dose not given beside the values. An excerpt: (§1) A representative panel of AFA/EX compounds was investigated on a variety of recombinant human ion channels expressed in mammalian cells and on native ion channels in dissociated rat dorsal root ganglion (DRG) neurons. […] Thus, this panel of compounds was next investigated on their effects on itching scratching behavior in two well-established itching models in mice.

For data set [1], the target named is T2, hERG potassium (K+) channels (Homo sapiens, UniProt Q12809).
T2 construct: expressed in transfected cells
Briefly: hERG potassium channel inhibition. It counts as cell-based. Particulars: at 1 μM.
Text: as §1
(In general: Block of hERG is tested as a sign of cardiac risk.)

The test system of the next data set is IK in rat DRG. Description: Inhibition of IK current in dissociated rat DRG neurons. Particulars: for IC50: rat DRG neurons, read-out: Inhibition of Currents in rat DRG: IK IC50; for K/T: ratio of IK IC50 to T-type IC50. Format: cell-based.
Text: as §1

Data set [2] deals with histamine-induced itching. Briefly: Histamine-induced itching (neck model of itch) in mice. Format: in vivo, mouse. Particulars: 30 mg/kg i.p., 30 min before pruritogen. On the procedure: (§2) Neck model of itch was employed. Mice (C57BL/6, male, 3-4 months old) were shaved at the nape of the neck 2-3 days before experiments. On the day of behavioral testing mice were individually placed in small plastic chambers (12 cm L×9.5 W×12 H) that inserted into an ordinary homecage at least 30 min for habituation and recorded baseline of behavior using a video camera and a piezoelectric floor sensor operated by a validated homecage behavioral monitory system, SmartCage, which can monitor multiple mouse scratching behaviors simultaneously. Treatment with an individual test article (10 representative AFA-compounds, each at 30 mg/kg) or vehicle (0.5% hydroxyl propyl cellulose aqueous solution containing 2% DMSO) were intraperitoneally (i.p.) injected 30 min prior to itching induction. Mice were given an intradermal injection of 50 μl of a pruritogen, chloroquine or histamine into the nape of the neck. Immediately after the injection, mice were returned to their chambers and were continually recorded by the piezoelectric floor sensor for 30 min. Human manual scoring of itching scratch behavior in real-time and confirmed by video and/or piezoelectric recordings offline. The itch behavior was quantified by counting the number of scratches in a blinded to the treatment manner. A scratch was counted when a mouse lifted its hindpaw to scratch the shaved region and returned the paw to the floor or to the mouth for licking. The piezoelectric signals with a larger and regular waveform distinguished from normal homecage activity were analyzed off-line to objectively quantifying scratch episodes and durations.

For another data set, the system named is INa in rat DRG. Briefly: Inhibition of INa current in dissociated rat DRG neurons. Format: cell-based. Particulars: for IC50: rat DRG neurons, read-out: Inhibition of Currents in rat DRG: INa IC50; for Na/T: ratio of INa IC50 to T-type IC50.
Text: as §1

Another data set concerns the target hCav2.2 (Homo sapiens, UniProt Q00975). Description: Recombinant hCav2.2 channel expressed in mammalian cells. It counts as cell-based. Particulars: for IC50: recombinant human channel.
Text: as §1

For data set [3], the system named is chloroquine-induced itching. Description: Chloroquine-induced itching (neck model of itch) in mice. Format: in vivo, mouse. Particulars: 30 mg/kg i.p., 30 min before pruritogen. On the procedure:
as §2

Data set [4] deals with citric acid-induced cough. Description: Citric acid-induced cough in naive, conscious guinea pigs. Format: in vivo, guinea pig. Particulars: for reduction of the number of cough events: guinea pig. The method, then: Guinea pigs (male, 280 g body weight, Hartley Crl:HA, Charles River) were maintained in temperature 21±2° C., humidity 55±10%, 12 hours on-12 hours off light cycle, with food and water ad libitum for at least 1 week before testing. Cough was induced with citric acid aerosol inhalation and cough assessment by human manual score (Gallico, Borghi et al. 1994). Individual animals were placed in a 4 L plexiglas observation chambers continuously filled with 17.5% citric acid aerosol. Animal cough counts were recorded for 5 min. Coughs can be recognized on the basis of sound associated with a rapid inspiration followed by a rapid expiration. Only the animal with cough counts >=10 times/5 min was selected for experiment. The selected animal was then randomized divided into 5 groups, n=8/group. Five days after screening test, the representative AFA-compound, EX-17 at 0, 3, 10 and 30 mg/kg were administered 30 minutes while the benchmark dextromethorphan hydrobromide (60 mg/kg, p.o.) 60 minutes prior to the citric acid inhalation, based on their PK profiles. […] The latency to the first cough has been used as an additional parameter to evaluate antitussive property.
Using the same test protocol, three more representative EX-compounds EX-128, -130 and -132 (each 30 mg/kg, p.o.) or vehicle were tested by orally administering 30 minutes while dextromethorphan hydrobromide (60 mg/kg, p.o.) 60 minutes prior to the citric acid inhalation, based on their PK profiles. […] The latencies to the first cough were increased with three compounds and the benchmark (FIG. 2B).

The structures appear in SMILES notation. Where “and” joins values, the source holds several entries; their conditions need not be identical. Equal values may be shown once. Entries after “also recorded” stand apart in the source; their conditions may differ.

T2 sequence (Q12809 whole entry): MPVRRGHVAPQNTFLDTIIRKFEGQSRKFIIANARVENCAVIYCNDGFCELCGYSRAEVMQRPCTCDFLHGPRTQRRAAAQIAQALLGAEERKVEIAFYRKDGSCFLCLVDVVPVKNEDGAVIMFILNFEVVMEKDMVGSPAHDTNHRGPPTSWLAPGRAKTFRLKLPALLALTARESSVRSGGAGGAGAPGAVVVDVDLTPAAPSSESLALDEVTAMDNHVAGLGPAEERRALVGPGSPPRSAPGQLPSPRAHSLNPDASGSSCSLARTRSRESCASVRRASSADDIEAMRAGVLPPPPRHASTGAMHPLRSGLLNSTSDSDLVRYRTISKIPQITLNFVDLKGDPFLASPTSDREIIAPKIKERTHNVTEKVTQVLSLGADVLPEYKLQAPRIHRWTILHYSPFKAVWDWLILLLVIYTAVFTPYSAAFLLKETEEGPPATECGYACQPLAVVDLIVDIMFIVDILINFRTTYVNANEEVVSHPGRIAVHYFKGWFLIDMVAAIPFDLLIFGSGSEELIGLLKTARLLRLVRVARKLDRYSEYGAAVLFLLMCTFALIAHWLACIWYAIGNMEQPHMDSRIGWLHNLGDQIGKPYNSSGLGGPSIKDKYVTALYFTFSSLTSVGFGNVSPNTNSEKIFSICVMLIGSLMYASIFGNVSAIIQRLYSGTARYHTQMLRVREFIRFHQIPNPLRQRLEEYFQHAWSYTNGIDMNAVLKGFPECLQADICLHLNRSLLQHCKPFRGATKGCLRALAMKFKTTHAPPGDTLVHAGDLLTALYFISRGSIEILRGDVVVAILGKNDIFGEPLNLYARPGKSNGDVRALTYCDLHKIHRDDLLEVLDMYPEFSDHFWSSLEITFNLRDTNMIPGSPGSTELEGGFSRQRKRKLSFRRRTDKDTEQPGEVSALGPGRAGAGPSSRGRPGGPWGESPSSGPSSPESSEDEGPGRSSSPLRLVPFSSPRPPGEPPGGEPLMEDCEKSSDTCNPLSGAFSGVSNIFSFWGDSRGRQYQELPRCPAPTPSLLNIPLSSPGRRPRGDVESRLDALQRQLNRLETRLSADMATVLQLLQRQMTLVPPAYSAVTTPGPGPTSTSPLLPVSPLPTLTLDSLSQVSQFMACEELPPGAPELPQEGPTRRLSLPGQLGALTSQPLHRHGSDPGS
hCav2.2, sequence (Q00975 whole entry): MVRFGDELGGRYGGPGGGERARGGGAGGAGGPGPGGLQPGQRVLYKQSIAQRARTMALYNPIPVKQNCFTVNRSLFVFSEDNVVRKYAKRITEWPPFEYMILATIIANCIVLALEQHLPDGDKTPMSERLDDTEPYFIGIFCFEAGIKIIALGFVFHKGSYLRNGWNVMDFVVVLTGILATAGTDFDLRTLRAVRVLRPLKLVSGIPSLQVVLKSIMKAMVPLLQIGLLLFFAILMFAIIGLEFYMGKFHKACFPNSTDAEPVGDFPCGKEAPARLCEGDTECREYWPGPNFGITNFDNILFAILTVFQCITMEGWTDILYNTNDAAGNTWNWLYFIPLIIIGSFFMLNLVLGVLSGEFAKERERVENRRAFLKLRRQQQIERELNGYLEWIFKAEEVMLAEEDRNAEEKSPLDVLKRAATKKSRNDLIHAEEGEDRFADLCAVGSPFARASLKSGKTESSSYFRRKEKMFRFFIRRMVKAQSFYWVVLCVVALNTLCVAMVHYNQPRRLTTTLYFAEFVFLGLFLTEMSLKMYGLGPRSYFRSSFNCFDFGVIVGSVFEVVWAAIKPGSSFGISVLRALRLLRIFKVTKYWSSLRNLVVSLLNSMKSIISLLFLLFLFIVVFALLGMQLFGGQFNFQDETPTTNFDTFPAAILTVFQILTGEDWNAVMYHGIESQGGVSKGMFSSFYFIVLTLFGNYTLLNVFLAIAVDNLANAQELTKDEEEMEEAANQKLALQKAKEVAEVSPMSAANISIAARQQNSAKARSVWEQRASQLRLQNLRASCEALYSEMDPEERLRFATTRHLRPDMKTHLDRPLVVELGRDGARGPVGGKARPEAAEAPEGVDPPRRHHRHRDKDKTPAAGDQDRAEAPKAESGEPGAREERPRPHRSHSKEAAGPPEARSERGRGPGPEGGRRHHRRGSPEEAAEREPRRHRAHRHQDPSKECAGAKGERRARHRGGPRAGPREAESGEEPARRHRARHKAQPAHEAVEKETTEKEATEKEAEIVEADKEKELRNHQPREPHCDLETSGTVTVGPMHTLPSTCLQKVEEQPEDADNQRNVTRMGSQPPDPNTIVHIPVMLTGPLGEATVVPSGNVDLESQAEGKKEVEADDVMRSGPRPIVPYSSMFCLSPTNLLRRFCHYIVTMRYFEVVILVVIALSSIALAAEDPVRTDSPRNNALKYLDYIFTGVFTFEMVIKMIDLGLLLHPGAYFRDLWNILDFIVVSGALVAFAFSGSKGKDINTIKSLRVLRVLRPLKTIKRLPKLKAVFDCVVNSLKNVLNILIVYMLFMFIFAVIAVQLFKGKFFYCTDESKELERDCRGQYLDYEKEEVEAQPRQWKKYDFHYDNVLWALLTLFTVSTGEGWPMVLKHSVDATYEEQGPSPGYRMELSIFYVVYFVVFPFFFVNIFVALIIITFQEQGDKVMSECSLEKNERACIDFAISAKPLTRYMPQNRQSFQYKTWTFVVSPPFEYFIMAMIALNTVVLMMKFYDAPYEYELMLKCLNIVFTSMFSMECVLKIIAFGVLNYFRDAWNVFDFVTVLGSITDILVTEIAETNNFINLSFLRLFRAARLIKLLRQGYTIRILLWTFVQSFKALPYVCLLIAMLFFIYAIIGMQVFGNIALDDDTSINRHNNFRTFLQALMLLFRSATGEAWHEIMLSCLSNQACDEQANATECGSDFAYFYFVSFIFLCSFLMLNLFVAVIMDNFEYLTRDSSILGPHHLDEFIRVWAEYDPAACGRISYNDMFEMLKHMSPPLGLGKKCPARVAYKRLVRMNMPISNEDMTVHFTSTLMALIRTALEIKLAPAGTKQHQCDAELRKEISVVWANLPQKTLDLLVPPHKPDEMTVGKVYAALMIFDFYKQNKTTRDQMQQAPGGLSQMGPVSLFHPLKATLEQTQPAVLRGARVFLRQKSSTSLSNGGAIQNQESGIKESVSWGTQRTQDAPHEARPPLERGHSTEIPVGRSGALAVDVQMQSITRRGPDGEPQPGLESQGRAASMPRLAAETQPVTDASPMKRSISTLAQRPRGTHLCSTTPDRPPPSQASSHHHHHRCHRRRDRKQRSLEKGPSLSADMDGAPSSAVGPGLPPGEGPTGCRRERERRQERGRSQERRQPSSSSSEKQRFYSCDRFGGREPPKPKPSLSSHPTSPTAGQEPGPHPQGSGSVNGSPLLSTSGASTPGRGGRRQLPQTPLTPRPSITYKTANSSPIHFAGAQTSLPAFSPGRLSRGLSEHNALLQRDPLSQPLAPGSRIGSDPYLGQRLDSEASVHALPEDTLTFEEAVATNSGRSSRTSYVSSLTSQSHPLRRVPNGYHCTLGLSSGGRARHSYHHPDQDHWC
hCav2.2, sequence (P54284 whole entry partner): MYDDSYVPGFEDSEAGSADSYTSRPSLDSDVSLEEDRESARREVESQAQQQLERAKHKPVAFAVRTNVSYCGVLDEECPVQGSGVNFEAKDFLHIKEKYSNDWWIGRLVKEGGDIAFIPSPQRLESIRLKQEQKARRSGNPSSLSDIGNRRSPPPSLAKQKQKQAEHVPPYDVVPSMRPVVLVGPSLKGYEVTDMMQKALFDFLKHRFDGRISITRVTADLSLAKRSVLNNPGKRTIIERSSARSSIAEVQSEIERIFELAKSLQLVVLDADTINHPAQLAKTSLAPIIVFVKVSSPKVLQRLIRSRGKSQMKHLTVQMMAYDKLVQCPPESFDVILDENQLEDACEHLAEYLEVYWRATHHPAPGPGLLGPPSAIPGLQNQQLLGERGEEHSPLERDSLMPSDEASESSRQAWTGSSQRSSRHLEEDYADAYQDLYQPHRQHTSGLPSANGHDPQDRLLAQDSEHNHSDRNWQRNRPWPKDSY
hCav2.2, sequence (P54289 25-956 partner limits assumed): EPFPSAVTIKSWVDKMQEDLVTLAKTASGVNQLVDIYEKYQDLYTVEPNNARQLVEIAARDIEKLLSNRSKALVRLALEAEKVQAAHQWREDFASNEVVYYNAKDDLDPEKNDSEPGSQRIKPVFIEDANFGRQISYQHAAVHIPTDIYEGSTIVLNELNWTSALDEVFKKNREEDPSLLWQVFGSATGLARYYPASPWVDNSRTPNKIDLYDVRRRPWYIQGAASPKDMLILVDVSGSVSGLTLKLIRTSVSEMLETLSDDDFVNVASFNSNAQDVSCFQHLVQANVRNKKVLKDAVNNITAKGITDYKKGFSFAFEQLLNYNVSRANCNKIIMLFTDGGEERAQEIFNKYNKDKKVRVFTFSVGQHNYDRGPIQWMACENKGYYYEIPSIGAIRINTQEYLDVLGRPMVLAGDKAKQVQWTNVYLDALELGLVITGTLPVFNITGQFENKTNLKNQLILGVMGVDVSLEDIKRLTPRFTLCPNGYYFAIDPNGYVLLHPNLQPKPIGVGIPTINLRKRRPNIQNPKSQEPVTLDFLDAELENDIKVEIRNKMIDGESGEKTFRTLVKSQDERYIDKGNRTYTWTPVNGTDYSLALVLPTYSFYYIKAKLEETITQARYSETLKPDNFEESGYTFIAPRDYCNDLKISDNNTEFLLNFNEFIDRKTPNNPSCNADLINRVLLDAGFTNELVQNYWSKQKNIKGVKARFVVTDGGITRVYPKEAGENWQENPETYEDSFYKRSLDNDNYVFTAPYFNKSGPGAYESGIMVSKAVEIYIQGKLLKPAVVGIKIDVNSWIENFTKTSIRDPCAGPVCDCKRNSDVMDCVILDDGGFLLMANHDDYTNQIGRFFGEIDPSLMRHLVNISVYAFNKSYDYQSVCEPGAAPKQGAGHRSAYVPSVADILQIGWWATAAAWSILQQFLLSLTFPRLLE
hCav2.2, sequence (P54289 957-1103 partner limits assumed): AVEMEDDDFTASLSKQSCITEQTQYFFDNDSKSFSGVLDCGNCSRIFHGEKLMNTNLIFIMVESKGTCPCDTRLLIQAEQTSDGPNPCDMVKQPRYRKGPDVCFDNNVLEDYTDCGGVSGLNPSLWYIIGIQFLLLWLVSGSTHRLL

Consider `CC(C)(C)CCN1CCC2(CC1)CC2N(CC1CC1)C(=O)c1cc(Cl)cc(Cl)c1` (centres unmarked) [AFA-206], for which, at hCav3.2 Channel, the 50% inhibitory concentration (IC50) is 0.067 µM and the “hCav3.2 Channel % Use Dep. (use dependent inhibition)” value turned out to be 8.2%. Besides, the “hERG % at 1 μM” value in data set [1] is reported as 50% at. In addition, in the data set with IK in rat DRG, the half-maximal inhibitory concentration (IC50) worked out at 6.8 µM and the K/T was determined as 102. For the same compound, the “inhibition of histamine-induced itching scratching behavior” value in data set [2] is “preferentially inhibited histamine-induced itching”. Also, in the data set with INa in rat DRG, the 50% inhibitory concentration (IC50) was 20.3 µM and the Na/T is reported as 303.
Regarding `CC(C)(C)CCN1CCC2(CC1)CC2NC(=O)Cc1cc(C(F)(F)F)cc(C(F)(F)F)c1` (centres unmarked) [AFA-221], at hCav2.2 (at 3 μM), the “hCav2.2 % at 3 μM” value turned out to be 47% at. The IC50 was 0.084 µM on hCav3.2 Channel, around 30 µM in the data set on IK in rat DRG and 3.6 µM in the data set with INa in rat DRG. Moreover, the “hCav3.2 Channel % Use Dep. (use dependent inhibition)” value on hCav3.2 Channel amounted to 28.3%. Also, the “inhibition of chloroquine-induced itching scratching behavior” value is “potent and equal efficacy” in data set [3]; “effective” in data set [3] (listed as EX-31). Besides, the “hERG % at 1 μM” value in data set [1] was 31% at. The K/T with IK in rat DRG was 357. The “inhibition of histamine-induced itching scratching behavior” value in data set [2] was “potent and equal efficacy”; in data set [2] (listed as EX-31), “effective”. Further, the Na/T in the data set with INa in rat DRG amounted to 43.
For the compound `C[C@H]1CN(S(=O)(=O)c2ccc(C(F)(F)F)cc2)CCN1C(=O)c1ccc2cccnc2c1` [AFA-353], the IC50 at hCav2.2 is 8.87 µM; at hCav3.2 Channel, 10.4 µM; in the data set on IK in rat DRG it was above 100 µM; in the data set with INa in rat DRG it was above 100 µM. Further, in data set [1], the “hERG % at 1 μM” value was found to be 23% at. Further, in the data set on IK in rat DRG, the K/T is above 10. The Na/T in the data set on INa in rat DRG is on record as above 10.
As to `O=C(NC1CC12CCN(S(=O)(=O)c1ccc(C(F)(F)F)cc1)CC2)c1cc(C(F)(F)F)cc(C(F)(F)F)c1` (centres unmarked) [AFA-358], the IC50 at hCav2.2 was 0.74 µM; at hCav3.2 Channel it was 1.01 µM; in the data set with IK in rat DRG, above 30 µM; with INa in rat DRG, above 30 µM. For the same compound, in data set [3], the “inhibition of chloroquine-induced itching scratching behavior” value is “effective; also recorded: potent and equal efficacy”. For the same compound, the “hERG % at 1 μM” value in data set [1] was found to be 59% at. Besides, the K/T in the data set with IK in rat DRG was above 30. In addition, the “inhibition of histamine-induced itching scratching behavior” value in data set [2] is “effective; also recorded: potent and equal efficacy”. Also, the Na/T with INa in rat DRG is on record as above 30.
On to `CC(C)(C)NC(=O)CN1CCC2(CC1)CC2NC(=O)c1ccc(Cl)cc1F` (centres unmarked) [EX-17], for which the “reduction of the number of cough events” value worked out at 7.2% in data set [4] (3 mg/kg p.o., 30 min before citric acid); 23.3% in data set [4] (10 mg/kg p.o., 30 min before citric acid); 36.8% in data set [4] (30 mg/kg p.o., 30 min before citric acid). The “latency to the first cough” value in data set [4] (30 mg/kg p.o., vs vehicle-treated control) is “reached significance; also recorded: significant increases”; in data set [4] (p.o., EX compounds 3-30 mg/kg, dextromethorphan 60 mg/kg) it was “increases in the latencies of the first cough in a dose-dependent manner”.
Regarding `COc1ccc2c(c1)[C@]13CCCC[C@@H]1[C@H](C2)N(C)CC3` [dextromethorphan, reference compound], in data set [4] (60 mg/kg p.o., 60 min before citric acid), the “reduction of the number of cough events” value was 40.0% and 42.6%. In addition, the “latency to the first cough” value was “significant increases; also recorded: trend of increasing the latency, but not reaching significant difference” in data set [4] (60 mg/kg p.o., vs vehicle-treated control) and “reached significance” in data set [4] (60 mg/kg p.o., vs vehicle-treated control, listed as dextromethorphan hydrobromide).

The term IC50 denotes the concentration that inhibits the measured activity by half.

(Values after US11744825B2, “Methods of treating hypersensitive cough or itching using ion channel inhibitory compounds” (AFASCI, Inc., priority 2018, dated 2023).)
